The record followed here is patent US20080182899A1, “ASSOCIATION OF BETA3 RECEPTOR AGONIST AND MONOAMINE REUPTAKE INHIBITORS, PHARMACEUTICAL COMPOSITION AND THERAPEUTIC USE THEREOF” (SANOFI-AVENTIS, priority 2005, published 2008).

The assay deals with mice stressed by MCS. The assay is described as follows: forced swimming test after moderate chronic stress (MCS) protocol. The format is in vivo, mice (male BALB/c ByJIco). The conditions noted are these: β3 agonist 1 mg/kg; for Percentage of time (immobile time of stressed animals relative to the unstressed animals): forced swimming test on day 50, 1 intraperitoneal injection per day from day 15 to day 50, fluoxetine hydrochloride 3 mg/kg; for Immobile time: forced swimming test on day 50, measured over 5 minutes, 1 intraperitoneal injection per day from day 15 to day 50, fluoxetine hydrochloride 3 mg/kg; for effect of repeated administration on immobile time (in words): forced swimming test on day 50, repeated intraperitoneal administration day 15 to day 50, fluoxetine 3 mg/kg. The protocol: The antidepressant effects of the combination according to the invention were evaluated in mice using the moderate chronic stress (MCS) protocol. This test was developed on rats by Willner (P. Willner, Neuroscience and Biobehavioral Review, 1992, 16, 525-34) and adapted to mice by Kopp et al. (C. Kopp, Behavioral Pharmacology, 1999, 10, 73-83).
Similarities between the depressive state in man and the effect of moderate chronic stress in mice were established. The emotivity of mice stressed by MCS was evaluated in the forced swimming test.
The MCS is performed in the following manner:
Male BALB/c ByJIco mice (Iffa Credo Lyons, France) 8 weeks old are placed in individual experiment cages (26×20×14 cm), provided with food and water ad libitum, at a controlled temperature of 22±1° C.
In the context of the protocol, the mice are subjected to a series of stresses such as forced bathing, food and/or water deprivation, housing in cages containing wet sawdust, permutation of the day/night cycle, maintenance under constant illumination or in darkness, each of these restrictions possibly lasting from 2 hours to 24 hours.
A first group of control animals is not subjected to the MCS (group 1—unstressed).
The animals subjected to the MCS are divided into 4 groups on day 15: • Group 2 (saline stress) consists of control animals receiving one intraperitoneal injection per day of physiological fluid. • Group 3 (fluoxetine stress) receives 1 intraperitoneal injection per day of fluoxetine hydrochloride at a rate of 3 mg/kg. • Group 4 (β3 agonist stress) receives 1 intraperitoneal injection per day of ethyl [(7S)-7(2R)-2-(3-chlorophenyl)-2-hydroxyethylamino-5,6,7,8-tetrahydronaphthalen-2-yloxy]acetate hydrochloride at a rate of 1 mg/kg. • Group 5 (fluoxetine+β3 agonist stress) receives 1 intraperitoneal injection per day of a solution containing fluoxetine hydrochloride (3 mg/kg) and ethyl [(7S)-7(2R)-2-(3-chlorophenyl)-2-hydroxyethylamino-5,6,7,8-tetrahydro-naphthalen-2-yloxy]acetate hydrochloride (1 mg/kg).
The injections are performed from day 15 to day 50.
On day 50, each group is subjected to the forced swimming test. […] The immobile time is measured over a period of 5 minutes.

Consider `CNCCC(Oc1ccc(C(F)(F)F)cc1)c1ccccc1` (stereo not drawn) [fluoxetine], for which the “Percentage of time (immobile time of stressed animals relative to the unstressed animals)” value is reported as “+21.5%”, the “Immobile time” value came out at 178.4 s and the “effect of repeated administration on immobile time (in words)” value is listed as “does not significantly modify this parameter”.

Turning to `CCOC(=O)COc1ccc2c(c1)C[C@@H](NC[C@H](O)c1cccc(Cl)c1)CC2.Cl` [β3 agonist, ethyl [(7S)-7(2R)-2-(3-chlorophenyl)-2-hydroxyethylamino-5,6,7,8-tetrahydronaphthalen-2-yloxy]acetate hydrochloride], the “Percentage of time (immobile time of stressed animals relative to the unstressed animals)” value is “+25.1%”, the “Immobile time” value is 182.0 s and the “effect of repeated administration on immobile time (in words)” value was “does not significantly modify this parameter”.
